This assay addresses N-terminal methyltransferase1 (NTMT1) (Homo sapiens (Human), UniProt Q9BV86). Nature of the assay: NTMT1 inhibition IC50, SAH hydrolase-coupled fluorescence assay. The class given is biochemical. The method, then:
The inhibitors ranging in concentration from (2 μL of 0.14 μM-1 mM) and following a three-fold dilution were incubated with 0.2 μM NTMT1 with a reaction mixture which was added in the following order: H2O, 10× Tris-HCl Buffer (2 μL of 250 mM Tris pH 7.4, 100 mM NaCl, and 500 mM KCl), SAH hydrolase (1 μL of 100 μM), SAM (0.2 μL of 10 mM), NTMT1 (1 μL of 4 μM) and ThioGlo1 (0.2 μL of 1.5 mM DMSO solution). After 10 mins of incubation at 37° C., the reaction was initiated with 1 μM of GPKRIA. Fluorescence intensity was monitored using a BMG ClarioStar microplate reader (Ex=380 nm, Em=510 nm) at 37° C. for 15 min. The rates were fit to the log[inhibitor] vs response model using least squares nonlinear regression through GraphPad Prism 7 software. All experiments were performed in triplicate.

Where [1] appears, read: 0.2 μM NTMT1, 1 μM GPKRIA peptide substrate, 37° C., ThioGlo1 fluorescence.

From patent publication US12479887B2, “Inhibitors for protein n-terminal methyltransferase and uses thereof” (Purdue Research Foundation, priority 2018, dated 2025) come the findings set out here.

Like-named read-outs stand apart in the source and are kept apart here. Non-standard residues stand in square brackets, D forms with d. Residues, ends and D or L forms follow the SMILES beside them. *: point of attachment. Acetyl(1-naphthyl) = O=C(Cc1cccc2ccccc12)*; dHpg = N[C@@H](C(=O)O)c1ccc(O)cc1; Hpg = N[C@H](C(=O)O)c1ccc(O)cc1; Pra = C#CC[C@H](N)C(=O)O; X1 = O=C(Cc1ccc(O)cc1)*; ClAc = O=C(CCl)*

Sequence of N-terminal methyltransferase1 (NTMT1) (Q9BV86 1-222): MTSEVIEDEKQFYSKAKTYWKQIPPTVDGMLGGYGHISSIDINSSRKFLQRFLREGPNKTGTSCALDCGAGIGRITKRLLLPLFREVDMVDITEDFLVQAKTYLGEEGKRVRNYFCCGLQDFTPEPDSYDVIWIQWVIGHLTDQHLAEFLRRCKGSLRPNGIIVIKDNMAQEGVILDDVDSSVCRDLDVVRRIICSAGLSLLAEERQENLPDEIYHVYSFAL

The term IC50 denotes the concentration at which inhibition is half-maximal. Higher therefore signals a need for much substance. `N=C(N)NCCC[C@H](NC(=O)[C@H](CCCCN)NC(=O)[C@@H]1CCCN1C(=O)Cc1cccc2ccccc12)C(N)=O` [Compound 1, (S)—N—((S)-6-amino-1-(((S)-1-amino-5-guanidino-1-oxopentan-2-yl)amino)-1-oxohexan-2-yl)-1-(2-(naphthalen-1-yl)acetyl)pyrrolidine-2-carboxamide]: the midpoint of inhibition, the IC50, lay at 400 ± 30 nM.
Consider `N=C(N)NCCC[C@H](NC(=O)[C@H](CCCCN)NC(=O)[C@@H]1CCCN1C(=O)Cc1cccc2[nH]ccc12)C(N)=O` [Compound 4, (S)-1-(2-(1H-indol-4-yl)acetyl)-N—((S)-6-amino-1-(((S)-1-amino-5-guanidino-1-oxopentan-2-yl)amino)-1-oxohexan-2-yl)pyrrolidine-2-carboxamide], for which half-maximal inhibition under setting [1] (IC50) was put at 160 ± 70 nM.
As for `NCCCC[C@H](NC(=O)CN(C(=O)Cc1cccc2ccccc12)C1CCCC1)C(N)=O` [Compound 10, (S)-6-amino-2-(2-(N-cyclopentyl-2-(naphthalen-1-yl)acetamido)acetamido)hexanamide], the IC50 under setting [1] was more than 100000 nM.
The same measure, in the same setting: then `NCCCC[C@H](NC(=O)c1cn(CC(=O)Nc2ccccc2)nn1)C(N)=O` [Compound 11, (S)—N-(1,6-diamino-1-oxohexan-2-yl)-1-(2-oxo-2-(phenylamino)ethyl)-1H-1,2,3-triazole-4-carboxamide], with more than 100000 nM; and `N=C(N)NCCC[C@H](NC(=O)[C@H](CCCCN)NC(=O)[C@@H]1CCCN1C(=O)[C@@H]1CCCN1C(=O)CCl)C(=O)O` [Compound 12, (2-chloroacetyl)-L-prolyl-L-prolyl-L-lysyl-L-arginine] (ClAc-PPKR-OH), with 16000 ± 5900 nM.
For the compound `N=C(N)NCCC[C@H](NC(=O)[C@H](CCCCN)NC(=O)[C@@H]1CCCN1C(=O)/C=C/c1ccc(O)cc1)C(N)=O` [Compound 17, (S)—N—((S)-6-amino-1-(((S)-1-amino-5-guanidino-1-oxopentan-2-yl)amino)-1-oxohexan-2-yl)-1-((E)-3-(4-hydroxyphenyl)acryloyl)pyrrolidine-2-carboxamide], 2500 nM corresponded to half-maximal inhibition (IC50). This lies in the single-digit micromolar range.
`N=C(N)NCCC[C@H](NC(=O)[C@H](CCCCN)NC(=O)[C@@H]1CCCN1C(=O)Cc1ccc(CO)cc1)C(N)=O` [Compound 18, (S)—N—((S)-6-amino-1-(((S)-1-amino-5-guanidino-1-oxopentan-2-yl)amino)-1-oxohexan-2-yl)-1-(2-(4-(hydroxymethyl)phenyl)acetyl)pyrrolidine-2-carboxamide]: under setting [1], the midpoint of inhibition, the IC50, lay at 1500 nM.
The compound `N=C(N)NCCC[C@H](NC(=O)[C@H](CCCCN)NC(=O)[C@@H]1CCCN1C(=O)[C@H](NC(=O)Cc1ccc(O)cc1)c1ccc(O)cc1)C(N)=O` [Compound 21, (S)—N—((S)-6-amino-1-(((S)-1-amino-5-guanidino-1-oxopentan-2-yl)amino)-1-oxohexan-2-yl)-1-((R)-2-(4-hydroxyphenyl)-2-(2-(4-hydroxyphenyl)acetamido)acetyl)pyrrolidine-2-carboxamide] (X1-[dHpg]PKR-NH2) returned an IC50 of more than 100000 nM.
Same read-out and setting: the value for `N=C(N)NCCC[C@H](NC(=O)[C@H](CCCCN)NC(=O)[C@@H]1CCCN1C(=O)[C@@H](NC(=O)Cc1ccc(O)cc1)c1ccc(O)cc1)C(N)=O` [Compound 22, (S)—N—((S)-6-amino-1-(((S)-1-amino-5-guanidino-1-oxopentan-2-yl)amino)-1-oxohexan-2-yl)-1-((S)-2-(4-hydroxyphenyl)-2-(2-(4-hydroxyphenyl)acetamido)acetyl)pyrrolidine-2-carboxamide] (X1-[Hpg]PKR-NH2) was more than 100000 nM; that for `N=C(N)NCCC[C@H](NC(=O)[C@H](CCCCN)NC(=O)[C@@H]1CCCN1C(=O)[C@H](NCCc1ccc(O)cc1)c1ccc(O)cc1)C(N)=O` [Compound 23, (S)—N—((S)-6-amino-1-(((S)-1-amino-5-guanidino-1-oxopentan-2-yl)amino)-1-oxohexan-2-yl)-1-((R)-2-((4-hydroxyphenethyl)amino)-2-(4-hydroxyphenyl)acetyl)pyrrolidine-2-carboxamide] was more than 100000 nM; that for `CC[C@H](C)[C@H](NC(=O)[C@H](CCCNC(=N)N)NC(=O)[C@H](CCCCN)NC(=O)[C@@H]1CCCN1C(=O)Cc1cccc2ccccc12)C(N)=O` [Compound 24, (S)—N—((S)-6-amino-1-(((S)-1-(((2S,3S)-1-amino-3-methyl-1-oxopentan-2-yl)amino)-5-guanidino-1-oxopentan-2-yl)amino)-1-oxohexan-2-yl)-1-(2-(naphthalen-1-yl)acetyl)pyrrolidine-2-carboxamide] ({Acetyl(1-naphthyl)}-PKRI-NH2) was 60 nM.
On the same count and under the same terms, then `N=C(N)NCCC[C@H](NC(=O)[C@H](CCCNC(=N)N)NC(=O)[C@H](CCCCN)NC(=O)[C@@H]1CCCN1C(=O)Cc1cccc2ccccc12)C(N)=O` [Compound 25, (S)—N—((S)-6-amino-1-(((S)-1-(((S)-1-amino-5-guanidino-1-oxopentan-2-yl)amino)-5-guanidino-1-oxopentan-2-yl)amino)-1-oxohexan-2-yl)-1-(2-(naphthalen-1-yl)acetyl)pyrrolidine-2-carboxamide] ({Acetyl(1-naphthyl)}-PKRR-NH2), with 40 nM; and `C#CC[C@H](NC(=O)[C@H](CCCNC(=N)N)NC(=O)[C@H](CCCCN)NC(=O)[C@@H]1CCCN1C(=O)Cc1cccc2ccccc12)C(N)=O` [Compound 26, (S)—N—((S)-6-amino-1-(((S)-1-(((S)-1-amino-1-oxopent-4-yn-2-yl)amino)-5-guanidino-1-oxopentan-2-yl)amino)-1-oxohexan-2-yl)-1-(2-(naphthalen-1-yl)acetyl)pyrrolidine-2-carboxamide] ({Acetyl(1-naphthyl)}-PKR[Pra]-NH2), with 90 nM.
In the case of `N=C(N)NCCC[C@H](NC(=O)[C@H](CCCNC(=N)N)NC(=O)[C@H](CCCNC(=N)N)NC(=O)[C@H](CCC(N)=O)NC(=O)[C@H](CCCNC(=N)N)NC(=O)[C@H](CCCNC(=N)N)NC(=O)[C@H](CCCCN)NC(=O)[C@H](CCCCN)NC(=O)[C@H](CCCNC(=N)N)NC(=O)CNC(=O)[C@H](CCCNC(=N)N)NC(=O)[C@H](CCCCN)NC(=O)[C@@H]1CCCN1C(=O)Cc1ccc(O)cc1)C(=O)O` [Compound 32, (2-(4-hydroxyphenyl)acetyl)-L-prolyl-L-lysyl-L-arginylglycyl-L-arginyl-L-lysyl-L-lysyl-L-arginyl-L-arginyl-L-glutaminyl-L-arginyl-L-arginyl-L-arginine], under setting [1], the half-maximal inhibitory concentration (IC50) was 230 ± 30 nM.
Compound `N=C(N)NCCC[C@H](NC(=O)[C@H](CCCNC(=N)N)NC(=O)[C@H](CCCNC(=N)N)NC(=O)[C@H](CCCNC(=N)N)NC(=O)[C@H](CCCNC(=N)N)NC(=O)[C@H](CCCNC(=N)N)NC(=O)[C@H](CCCCN)NC(=O)[C@@H]1CCCN1C(=O)Cc1cccc2ccccc12)C(N)=O` [Compound 34, (S)—N-((6S,9S,12S,15S,18S,21S,24S)-1,28-diamino-6-carbamoyl-9,12,15,18,21-pentakis(3-guanidinopropyl)-1-imino-8,11,14,17,20,23-hexaoxo-2,7,10,13,16,19,22-heptaazaoctacosan-24-yl)-1-(2-(naphthalen-1-yl)acetyl)pyrrolidine-2-carboxamide] ({Acetyl(1-naphthyl)}-PKRRRRRR-NH2) yielded an IC50 under setting [1] of 68 nM.
Still for that read-out and setting: the value for `NCCCC[C@H](NC(=O)[C@@H]1CCCN1C(=O)Cc1cccc2ccccc12)C(=O)N[C@@H](CCC(=O)O)C(N)=O` [Compound 39, (S)-5-amino-4-((S)-6-amino-2-((S)-1-(2-(naphthalen-1-yl)acetyl)pyrrolidine-2-carboxamido)hexanamido)-5-oxopentanoic acid] was 5760 nM.
In the case of `N=C(N)NCCC[C@H](NC(=O)[C@H](CCCCN)NC(=O)[C@@H]1CCCN1C(=O)Cc1cccc2ccccc12)C(=O)N[C@@H](Cc1c[nH]c2ccccc12)C(N)=O` [Compound 43] ({Acetyl(1-naphthyl)}-PKRW-NH2), the IC50 is 95 ± 26 nM.
Still for that read-out and setting: the value for `N=C(N)NCCC[C@H](NC(=O)[C@H](CCCCN)NC(=O)[C@@H]1CCCN1C(=O)Cc1cccc2ccccc12)C(=O)N[C@@H](Cc1ccc(O)cc1)C(N)=O` [Compound 44, (S)—N—((S)-6-amino-1-(((S)-1-(((S)-1-amino-3-(4-hydroxyphenyl)-1-oxopropan-2-yl)amino)-5-guanidino-1-oxopentan-2-yl)amino)-1-oxohexan-2-yl)-1-(2-(naphthalen-1-yl)acetyl)pyrrolidine-2-carboxamide] ({Acetyl(1-naphthyl)}-PKRY-NH2) was 79 ± 13 nM; that for `N=C(N)NCCC[C@H](NC(=O)[C@H](CCCCN)NC(=O)[C@@H]1CCCN1C(=O)[C@@H](NCCc1ccc(O)cc1)c1ccc(O)cc1)C(N)=O` [Compound 47, (S)—N—((S)-6-amino-1-(((S)-1-amino-5-guanidino-1-oxopentan-2-yl)amino)-1-oxohexan-2-yl)-1-((S)-2-((4-hydroxyphenethyl)amino)-2-(4-hydroxyphenyl)acetyl)pyrrolidine-2-carboxamide] was more than 100000 nM.
